Data taken from patent publication US20110009351A1, “SCREENING ASSAY TO IDENTIFY CORRECTORS OF PROTEIN TRAFFICKING DEFECTS” (Traffick Therepeutics Inc., priority 2007, published 2011).
Where a name gives a salt, the structure may show the parent alone. One block for each molecule: values may come before it.

Assays:
[1] = biological target: ΔF508-CFTR (Homo sapiens, UniProt P13569, DEL508-508); format: cell-based; set-up: which was then ligated into full length pNUT-CFTR linearized using Hpa1 and Pml1; expressed in transfected cells; conditions: for signal in the trafficking assay / ΔF508-CFTR correctors identified by highthroughput screening: hit class: Microsource Discovery library, 20 μM; for signal in the trafficking assay: medium and weak hits; for hit in screen (class letter) / hit in screen (score): Prestwick library, initial corrector assay; for hit in screen (class letter) / ΔF508-CFTR correctors identified by highthroughput screening: hit class: BHK cells; for hit in screen (score): standard deviations above untreated controls; for ΔF508-CFTR correctors identified by highthroughput screening: hit class: 37° C.
Experimental: BHK cells expressing 3HA-tagged ΔF508-CFTR between passages 5-8 were seeded in 96-well plates (Corning half area, black-sided, clear bottom) at 15,000 cells per well and incubated with culture medium for 24 h at 37° C. Each well was then treated with a different test compound (80 compounds per plate) for 24 h at 20 μM final concentration. The remaining 16 wells on each plate were used for control conditions. […] Cells were fixed in a 4% paraformaldehyde solution, washed with PBS, and blocked with PBS containing 5% fetal bovine serum (FBS) for 1 hat 4° C.
Blocking solution was replaced with 15 μl of primary antibody solution containing 1% FBS and mouse monoclonal anti-HA antibody (1:150 dilution, Sigma) in PBS. The plates were sealed and left at 4° C. overnight. After three washes with 100 μl PBS, cells were incubated for 1 h with 15 μl of secondary antibody solution containing 1% FBS and anti-mouse IgG conjugated with FITC (1:100 dilution, Sigma) in PBS. Cells were again washed three times with 100 μl of PBS and analyzed in a plate reader (Analyst™ HT96.384, Biosystems; 488 nm excitation/510 nm emission). […] The mean fluorescence of four untreated wells was used as the background signal when calculating deviations of the 80 compound-treated wells. Hits were then cherry-picked into reservoir plates and re-tested in duplicate using the same assay.
BHK cells expressing ΔF508-CFTR were incubated with test compounds (20 μM) for 24 hours at 37° C. in a 96 well format. Plasma membrane expression of ΔF508-CFTR was then assayed by immunofluorescence using a primary antibody directed against the inserted 3HA tag and a secondary antibody conjugated with a fluorophore (FITC). […] The positive compounds were selected and retested in duplicate to obtain an N of 3. At the re-screening stage, the intrinsic fluorescence of each potential hit was also measured and the fluorescent ones were not considered further.
Screening was performed using BHK cells that stably express F508-CFTR bearing three tandem haemagglutinin-epitope tags (3HA) and linker sequences in the fourth extracellular loop after amino acid 901 (Howard et al., 1995; Carlile et al., 2007; Robert et al., 2008). […] Screening was performed using the Prestwick Chemical Library of 1120 high-purity compounds.

[2] = biological target: T1, F508del CFTR (Homo sapiens, UniProt P13569, DEL508-508); assay: YFP fluorescence quenching functional assay (iodide influx), HEK293 cells with F508del CFTR and halide sensitive YFP; format: cell-based; conditions: 10 μM, 24 h, nc = 100% pc = 69.2; for remaining activity at 10 µM: HEK293, read-out: % YFP quench
T1 construct: expressed in transfected cells; host or cells: HEK293 Griptite cells stably expressing F508del CFTR, transiently transfected with halide-sensitive eYFP
Experimental: In addition to the MDS compounds, the 1120 Prestwick Library compounds were screened. (See FIGS. 7 to 12.) Of the compounds, one qualified as a “strong” hit, 3 as “medium” hits and 57 as “weak” hits. The Z score for the assay was 0.62. The top 50 hits were further tested in a counter screen in which the halide sensitive fluorescent compound (YFP) was expressed inside cells (Table 2). After incubation with the test compounds the ability of the cells to uptake iodide was measure by decreasing YFP fluorescence. In these cells this can only occur if functional CFTR is present at the cell surface (FIG. 7). The hits were also tested for the appearance of the Band C form of CFTR. […] The functionality of the compounds was further studied by the use of Iodide efflux assays for each compound in both BHK and the more physiologically relevant CFBE cells. […] FIG. 10 is a table of results for the 15 hit compounds which summarizes many experiments. […] The results for the best 15 compounds from the Prestwick Library, or “Prestwick 15”, are shown FIGS. 8, 9 and 10.
Strongly adhesive Human […] Kidney cells stably expressing both the human macrophage scavenger receptor (HEK293 Griptite, Invitrogen) and F508del CFTR were plated in 96-well plates and transiently transfected with pcDNA3 plasmid encoding a halide sensitive variant of eYFP. After 24-48 h later cells were exposed to 10 μM test compound in triplicate and incubated for an additional 24 h. Cells were stimulated for 20 minutes with a in a buffer containing 25 μM forskolin, 45 μM IBMX and 50 μM genistein final concentration. The high content screening assay was performed using a Cellomics platform. Iodide was added robotically to a final concentration of 50 mM and the resulting decrease in fluorescence was measured. Images were taken at time 0 and stored for subsequent use when calculating a mask so that only those cells that express YFP at time 0 are measured. The quenching was detected in 15 images taken over the course of an experiment lasting 40 seconds. Each test compound was compared to the following two controls: a negative control without drugs to assess photobleaching that may occur when the same field of view is repeatedly imaged, and a positive control with cells treated with a known potentiator. Results were generated from 150-300 cells per well.

Chain of ΔF508-CFTR (P13569 with tags, fused parts or gaps DEL508-508): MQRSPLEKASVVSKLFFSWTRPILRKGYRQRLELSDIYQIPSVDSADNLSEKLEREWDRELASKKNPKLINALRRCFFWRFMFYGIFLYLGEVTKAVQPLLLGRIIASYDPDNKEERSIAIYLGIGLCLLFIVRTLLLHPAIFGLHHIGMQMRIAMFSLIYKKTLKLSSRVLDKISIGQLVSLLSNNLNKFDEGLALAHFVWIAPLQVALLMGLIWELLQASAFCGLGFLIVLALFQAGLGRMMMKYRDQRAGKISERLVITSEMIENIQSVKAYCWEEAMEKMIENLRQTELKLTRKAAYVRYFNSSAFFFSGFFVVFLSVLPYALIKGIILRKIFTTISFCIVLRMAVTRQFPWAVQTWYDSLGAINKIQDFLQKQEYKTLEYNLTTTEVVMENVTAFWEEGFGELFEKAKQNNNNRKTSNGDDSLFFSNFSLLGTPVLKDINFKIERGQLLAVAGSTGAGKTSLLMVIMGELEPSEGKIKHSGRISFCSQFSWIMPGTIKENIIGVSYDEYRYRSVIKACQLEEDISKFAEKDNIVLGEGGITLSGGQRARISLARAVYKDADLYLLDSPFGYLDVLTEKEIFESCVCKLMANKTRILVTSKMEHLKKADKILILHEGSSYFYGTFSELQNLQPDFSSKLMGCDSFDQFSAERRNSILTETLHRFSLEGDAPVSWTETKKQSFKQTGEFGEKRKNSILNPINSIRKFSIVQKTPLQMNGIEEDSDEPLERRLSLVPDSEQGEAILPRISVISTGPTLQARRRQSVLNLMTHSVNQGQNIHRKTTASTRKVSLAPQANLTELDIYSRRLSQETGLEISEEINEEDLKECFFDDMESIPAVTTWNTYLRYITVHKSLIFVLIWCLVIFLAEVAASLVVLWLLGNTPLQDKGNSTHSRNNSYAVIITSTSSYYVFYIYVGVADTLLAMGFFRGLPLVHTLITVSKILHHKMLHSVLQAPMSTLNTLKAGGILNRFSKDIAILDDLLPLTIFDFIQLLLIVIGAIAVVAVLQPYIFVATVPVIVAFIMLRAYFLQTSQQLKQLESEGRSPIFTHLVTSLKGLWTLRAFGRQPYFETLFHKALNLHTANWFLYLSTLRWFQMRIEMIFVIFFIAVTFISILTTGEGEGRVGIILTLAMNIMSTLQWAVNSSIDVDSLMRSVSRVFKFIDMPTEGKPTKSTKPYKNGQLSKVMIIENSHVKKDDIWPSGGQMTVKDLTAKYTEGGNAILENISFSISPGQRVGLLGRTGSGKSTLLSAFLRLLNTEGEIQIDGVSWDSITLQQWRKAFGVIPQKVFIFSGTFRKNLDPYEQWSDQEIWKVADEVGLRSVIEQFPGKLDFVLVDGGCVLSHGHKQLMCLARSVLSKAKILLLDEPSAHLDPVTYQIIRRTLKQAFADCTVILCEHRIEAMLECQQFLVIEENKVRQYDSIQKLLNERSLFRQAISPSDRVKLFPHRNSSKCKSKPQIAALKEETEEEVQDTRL
T1 sequence (P13569 with tags, fused parts or gaps DEL508-508): as above

Molecule: 1-deacetoxy-1-oxo-3,7 dideactyl khivorin
signal in the trafficking assay ([1]; 24 hours): consistently elevated signal

Molecule: CN(Cc1cnc2nc(N)nc(N)c2n1)c1ccc(C(=O)N[C@@H](CCC(=O)O)C(=O)O)cc1 (racemic) [Amethopterin (R, S)]
% YFP quench [2]: 109%
hit in screen (class letter) [1]: W (Medium and weak hits were defined as compounds giving a cell fluorescence signal that was between 2 and 3 or 1 and 2 standard deviations, respectively, above untreated control wells)
hit in screen (score) [1]: 1.2

Molecule: OCC(O)CN1CCN(c2ccccc2)CC1 (racemic) [Dropropizine (R, S)]
% YFP quench [2]: 92%
hit in screen (class letter) [1]: W (Medium and weak hits were defined as compounds giving a cell fluorescence signal that was between 2 and 3 or 1 and 2 standard deviations, respectively, above untreated control wells)
hit in screen (score) [1]: 1.2

Molecule: C[C@]12CCC3C(CC[C@H]4C[C@@H](Cl)CC[C@]34C)C1CCC2=O (stereo partly drawn) [3-beta chloroandrostanone]
signal in the trafficking assay ([1]; 24 hours): consistently elevated signal

Molecule: N[C@H]1CONC1=O [(S)-(−)-Cycloserine]
% YFP quench [2]: 98%
hit in screen (class letter) [1]: W (Medium and weak hits were defined as compounds giving a cell fluorescence signal that was between 2 and 3 or 1 and 2 standard deviations, respectively, above untreated control wells)
hit in screen (score) [1]: 1.4

Molecule: CC(=O)c1ccc(S(=O)(=O)NC(=O)NC2CCCCC2)cc1 [Acetohexamide]
remaining activity at 10 µM [2]: 88%
hit in screen (class letter) [1]: W (Medium and weak hits were defined as compounds giving a cell fluorescence signal that was between 2 and 3 or 1 and 2 standard deviations, respectively, above untreated control wells)
hit in screen (score) [1]: 1.0

Molecule: Nc1ncnc2c1ncn2[C@@H]1O[C@H](COP(=O)(O)O)[C@@H](O)[C@H]1O.O [Adenosine 5′-monophosphate monohydrate]
remaining activity at 10 µM [2]: 78%
hit in screen (class letter) [1]: W (Medium and weak hits were defined as compounds giving a cell fluorescence signal that was between 2 and 3 or 1 and 2 standard deviations, respectively, above untreated control wells)
hit in screen (score) [1]: 1.1

Molecule: c1ccc(CNc2ncnc3[nH]cnc23)cc1 [Aminopurine, 6-benzyl]
% YFP quench [2]: 89%
hit in screen (class letter) [1]: W (Medium and weak hits were defined as compounds giving a cell fluorescence signal that was between 2 and 3 or 1 and 2 standard deviations, respectively, above untreated control wells)
hit in screen (score) [1]: 1.6

Molecule: CC1=CC(=O)C2=C(C)C[C@H](O)[C@@H]3[C@H](OC(=O)[C@H]3C)[C@H]12 [Austricine hydrate]
remaining activity at 10 µM [2]: 91%
hit in screen (class letter) [1]: W (Medium and weak hits were defined as compounds giving a cell fluorescence signal that was between 2 and 3 or 1 and 2 standard deviations, respectively, above untreated control wells)
hit in screen (score) [1]: 1.1

Molecule: NC(=O)N1c2ccccc2C=Cc2ccccc21 [Carbamazenine]
% YFP quench [2]: 86%
hit in screen (class letter) [1]: W (Medium and weak hits were defined as compounds giving a cell fluorescence signal that was between 2 and 3 or 1 and 2 standard deviations, respectively, above untreated control wells)
hit in screen (score) [1]: 1.1

Molecule: CCOC(=O)n1ccn(C)c1=S [Carbimazole]
remaining activity at 10 µM [2]: 95%
hit in screen (class letter) [1]: W (Medium and weak hits were defined as compounds giving a cell fluorescence signal that was between 2 and 3 or 1 and 2 standard deviations, respectively, above untreated control wells)
hit in screen (score) [1]: 1.0

Molecule: Clc1ccc(Cn2c(CN3CCCC3)nc3ccccc32)cc1 [Clemizole hydrochloride]
remaining activity at 10 µM [2]: 84%
hit in screen (class letter) [1]: W (Medium and weak hits were defined as compounds giving a cell fluorescence signal that was between 2 and 3 or 1 and 2 standard deviations, respectively, above untreated control wells)
hit in screen (score) [1]: 1.5

Molecule: C[C@@H]1CCC[C@H](C)N1NC(=O)c1ccc(Cl)c(S(N)(=O)=O)c1 [Clopamide]
remaining activity at 10 µM [2]: 79%
hit in screen (class letter) [1]: W (Medium and weak hits were defined as compounds giving a cell fluorescence signal that was between 2 and 3 or 1 and 2 standard deviations, respectively, above untreated control wells)
hit in screen (score) [1]: 1.1

Molecule: C#CCN(C)CCCOc1ccc(Cl)cc1Cl [Clorgyline hydrochloride]
remaining activity at 10 µM [2]: 77%
hit in screen (class letter) [1]: W (Medium and weak hits were defined as compounds giving a cell fluorescence signal that was between 2 and 3 or 1 and 2 standard deviations, respectively, above untreated control wells)
hit in screen (score) [1]: 1.0

Molecule: Cc1[nH]ccc2c1[nH]c1cc(=O)ccc12 [Harmol hydrochloride dihydrate]
remaining activity at 10 µM [2]: 92%

remaining activity at 10 µM [2]: 94%
Molecule: NC(=O)N/N=C/c1ccc([N+](=O)[O-])o1 [Nitrofural]

Molecule: CN(Cc1cc(Br)cc(Br)c1N)C1CCCCC1 [bromhexine]
signal in the trafficking assay ([1]; 24 hours): consistently elevated signal

Molecule: N.N.O=C([O-])C1(C(=O)[O-])CCC1.[Pt+2] [carboplatin]
ΔF508-CFTR correctors identified by highthroughput screening: hit class ([1]; 24 hours): strong hits

Molecule: O=C(N[C@H](CO)[C@H](O)c1ccc([N+](=O)[O-])cc1)C(Cl)Cl [chloramphenicol]
ΔF508-CFTR correctors identified by highthroughput screening: hit class ([1]; 24 hours): strong hits

Molecule: COC(=O)c1c(Cl)c(Cl)c(C(=O)OC)c(Cl)c1Cl [dacthal]
ΔF508-CFTR correctors identified by highthroughput screening: hit class ([1]; 24 hours): strong hits

Molecule: O=c1c(-c2ccc(O)cc2)coc2cc(O)ccc12 [daidzein]
signal in the trafficking assay ([1]; 24 hours): consistently elevated signal

Molecule: C[C@]12CC[C@H](O)CC1=CC[C@@H]1[C@@H]2CC[C@]2(C)C(=O)CC[C@@H]12 [dyhydroepiandrosterone]
signal in the trafficking assay ([1]; 24 hours): consistently elevated signal

Molecule: CC1(C)[C@@H](O[C@H]2O[C@H](C(=O)O)[C@@H](O)[C@H](O)[C@H]2O[C@@H]2O[C@H](C(=O)O)[C@@H](O)[C@H](O)[C@H]2O)CC[C@]2(C)[C@H]3C(=O)C=C4[C@@H]5C[C@@](C)(C(=O)O)CC[C@]5(C)CC[C@@]4(C)[C@]3(C)CC[C@@H]12 [glycyrrhizic acid]
ΔF508-CFTR correctors identified by highthroughput screening: hit class ([1]; 24 hours): strong hits

Molecule: CC(=O)O[C@H]1C[C@@H](OC(C)=O)C(C)(C)[C@@H]2C[C@@H](OC(C)=O)[C@]3(C)[C@H](CC[C@@]4(C)[C@H](c5ccoc5)OC(=O)[C@H]5O[C@@]534)[C@@]12C [khivorin]
signal in the trafficking assay ([1]; 24 hours): consistently elevated signal

Molecule: O=C1N[C@@H]2[C@@H](O)[C@@H](O)[C@H](O)[C@@H](CO)N2C1=O [kifunesine]
increase in signal, suitability as positive control for the corrector assay screen ([1]; kifunesine 100 μM, Sodium 4 Phenylbutyrate 1 mM, curcumin 40 μM, 24 hours): not sufficient to act as a positive control

Molecule: didectylkhivorin
signal in the trafficking assay ([1]; 24 hours): consistently elevated signal
